pIC50: −log10 of the molar value.

We go through 56 compounds from patent publication US10258603B2 (priority 2014, dated 2019).

One assay concerns the target T1, TAF1-BD2 (Homo sapiens, UniProt P21675).
T1 sequence (P21675 1525-1656): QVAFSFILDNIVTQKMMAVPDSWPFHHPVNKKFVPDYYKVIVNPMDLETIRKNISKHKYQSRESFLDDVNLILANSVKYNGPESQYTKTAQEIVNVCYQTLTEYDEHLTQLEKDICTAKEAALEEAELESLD
In words: TAF1-BD2 TR-FRET Binding Assay. As to conditions: Assay: TAF-1. (Time-resolved FRET reads energy transfer from a long-lived donor to a nearby acceptor.)
Procedure: Specifically, in a 384 well ProxiPlate TAF1-BD2 (6 nM final) was combined with biotin-ligand (50 nM final) in 50 mM HEPES (pH 7.5), 50 mM NaCl, 1 mM TCEP, 0.01% (w/v) BSA, and 0.008% (w/v) Brij-35 either in the presence of DMSO (final 0.2% DMSO) or compound dilution series in DMSO. After 10 minutes incubation at room temperature, a mixture Eu-W1024 Anti-6×His antibody (Perkin Elmer AD0110) and SureLight™ Allophycocyanin-Streptavidin (APC-SA, Perkin Elmer CR130-100) were added to a final concentrations of 0.2 nMolar antibody and 25 nMolar APC-SA, respectively. After twenty minutes of equilibration, the plates were read on an Envision instrument and IC50s calculated using a four parameter non-linear curve fit.
As a reminder, the pIC50 is the IC50 on a negative log10 scale, so that one unit is a factor of ten. Read a high pIC50 as a small IC50. Take `CN(C(=O)c1cn(C)c(=O)c2[nH]ccc12)C1CCN(CC2CCCC2)CC1` [Example 219]: the pIC50 was 5.44. On the same count and under the same terms, the value for `CC(C)N1CC2C(C1)C2NC(=O)c1cn(C)c(=O)c2[nH]ccc12` (centres unmarked) [Example 228] was 5.48; that for `CN(CC1CCN(CC2CCCO2)CC1)C(=O)c1cn(C)c(=O)c2[nH]ccc12` (centres unmarked) [Example 231] was 5.00; that for `CN(CC1CCN(CC2CCCCO2)CC1)C(=O)c1cn(C)c(=O)c2[nH]ccc12` (centres unmarked) [Example 235] was 5.00. On the same count and under the same terms, then `CN(CC1CCN(CC2CCOC2)CC1)C(=O)c1cn(C)c(=O)c2[nH]ccc12` (centres unmarked) [Example 236], with 4.85; and `C=CCn1cc(C(=O)N(C)C2[C@H]3CN(c4nccc(C(F)(F)F)n4)C[C@@H]23)c2cc[nH]c2c1=O` (some centres unmarked) [Example 250], with 4.85; and `CN(C(=O)c1cn(C)c(=O)c2[nH]ccc12)C1CCN(CCc2ccccc2)CC1` [Example 252, N,6-dimethyl-7-oxo-N-(1-phenethyl-4-piperidyl)-1H-pyrrolo[2,3-c]pyridine-4-carboxamide], with 5.30. On to `CC(CN1CCC(N(C)C(=O)c2cn(C)c(=O)c3[nH]ccc23)CC1)c1ccccc1` (centres unmarked) [Example 255], for which the negative logarithm of the IC50 (pIC50) is 5.32.

Regarding “N-cyclopropyl-6-methyl-N-(1-methyl-4-piperidyl)-7-oxo-1H-pyrrolo[2,3-c]pyridine-4-carboxamide [Example 81]”, the pIC50 was 6.15. Against the preceding compound, the pIC50 is 0.83 log units higher.

A further assay concerns the target T2, BRD9 (Homo sapiens, UniProt Q9H8M2).
T2 construct: 134-239 was cloned, expressed, and purified to homogeneity; Flag; made in house
T2 sequence (Q9H8M2 134-239 limits assumed): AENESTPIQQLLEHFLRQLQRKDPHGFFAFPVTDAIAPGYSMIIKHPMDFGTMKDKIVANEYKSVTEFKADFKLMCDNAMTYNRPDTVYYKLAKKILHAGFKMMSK
In words: BRD9 AlphaLisa Binding Assay.
Conditions: not given
The method, then:
IC50 Measurements for Inhibitors Using BRD9 AlphaLisa Binding Assay His/Flag epitope tagged BRD9134-239 was cloned, expressed, and purified to homogeneity. […] After 20 minutes incubation at room temperature AlphaLisa Streptavidin Acceptor Beads (Perkin-A[…]) and AlphaLisa Nickel donor beads (Perkin AS 10 ID) were added to a final concentration of 15 ug/mL each.
On the technique in general: Alpha assays give light when donor and acceptor beads are brought close together.
In turn, `CN(C)CCNC(=O)c1cn(C)c(=O)c2[nH]ccc12` [Example 1, N-(2-dimethylaminoethyl)-6-methyl-7-oxo-1H-pyrrolo[2,3-c]pyridine-4-carboxamide] had a pIC50 of 5.52. Same read-out and setting: the value for `CN1CCC(CNC(=O)c2cn(C)c(=O)c3[nH]ccc23)CC1` [Example 3, 6-methyl-N-[(1-methyl-4-piperidyl)methyl]-7-oxo-1H-pyrrolo[2,3-c]pyridine-4-carboxamide] was 5.46. `Cn1cc(C(=O)NCCN2CCCCC2)c2cc[nH]c2c1=O` [Example 5, 6-methyl-7-oxo-N-[2-(1-piperidyl)ethyl]-1H-pyrrolo[2,3-c]pyridine-4-carboxamide] gave a pIC50 of 6.10. Same read-out and setting: then `CN1CCC(NC(=O)c2cn(C)c(=O)c3[nH]ccc23)C1` (centres unmarked) [Example 6, 6-methyl-N-(1-methylpyrrolidin-3-yl)-7-oxo-1H-pyrrolo[2,3-c]pyridine-4-carboxamide], with 5.82. The compound `CN1CCCC1CCNC(=O)c1cn(C)c(=O)c2[nH]ccc12` (centres unmarked) [Example 7, 6-methyl-N-[2-(1-methylpyrrolidin-2-yl)ethyl]-7-oxo-1H-pyrrolo[2,3-c]pyridine-4-carboxamide] had a pIC50 of 6.00. This pIC50 and that of the compound before are within 0.2 log units of each other.

Consider `CC=CCn1cc(C(=O)NCCCN2CCN(C)CC2)c2cc[nH]c2c1=O` [Example 9, 6-but-2-enyl-N-[3-(4-methylpiperazin-1-yl)propyl]-7-oxo-1H-pyrrolo[2,3-c]pyridine-4-carboxamide], for which the pIC50 was 6.04. The compound `CC=CCn1cc(C(=O)NCC2CCN(C)CC2)c2cc[nH]c2c1=O` [Example 11, 6-but-2-enyl-N-[(1-methyl-4-piperidyl)methyl]-7-oxo-1H-pyrrolo[2,3-c]pyridine-4-carboxamide] showed a pIC50 of 5.27. Against the preceding compound, the pIC50 is 0.77 log units lower. The compound `CC=CCn1cc(C(=O)NCCN2CCN(C)CC2)c2cc[nH]c2c1=O` [Example 12, 6-but-2-enyl-N-[2-(4-methylpiperazin-1-yl)ethyl]-7-oxo-1H-pyrrolo[2,3-c]pyridine-4-carboxamide] gave a negative-log IC50 (pIC50) of 6.08. Still for that read-out and setting: then `CC=CCn1cc(C(=O)NC2(C)CCCCC2)c2cc[nH]c2c1=O` [Example 18, 6-but-2-enyl-N-(1-methylcyclohexyl)-7-oxo-1H-pyrrolo[2,3-c]pyridine-4-carboxamide], with 5.68; and `CC=CCn1cc(C(=O)NCCC2CCN(C(=O)OCc3ccccc3)C2)c2cc[nH]c2c1=O` (centres unmarked) [Example 19, benzyl 3-[2-[(6-but-2-enyl-7-oxo-1H-pyrrolo[2,3-c]pyridine-4-carbonyl)amino]ethyl]pyrrolidine-1-carboxylate], with 7.12; and `CN(C(=O)c1cn(C)c(=O)c2[nH]ccc12)C1CCN(Cc2ccccc2)C1` (centres unmarked) [Example 22, N-(1-benzylpyrrolidin-3-yl)-N,6-dimethyl-7-oxo-1H-pyrrolo[2,3-c]pyridine-4-carboxamide], with 5.14. `CC1CC(C)CN(CCNC(=O)c2cn(C)c(=O)c3[nH]ccc23)C1` (centres unmarked) [Example 33, N-[2-(3.5-dimethyl-1-piperidyl)ethyl]-6-methyl-7-oxo-1H-pyrrolo[2,3-c]pyridine-4-carboxamide] showed a pIC50 of 5.27. The pIC50 values of the last two compounds are within 0.2 log units of each other. In turn, `CN1CCN(CCCNC(=O)c2cn(C)c(=O)c3[nH]ccc23)CC1` [Example 34, 6-methyl-N-[3-(4-methylpiperazin-1-yl)propyl]-7-oxo-1H-pyrrolo[2,3-c]pyridine-4-carboxamide] showed a pIC50 of 5.66. Against the preceding compound, the pIC50 is 0.39 log units higher. On the same count and under the same terms, then `Cn1cc(C(=O)NC(C)(C)CN2CCOCC2)c2cc[nH]c2c1=O` [Example 35, N-(1,1-dimethyl-2-morpholino-ethyl)-6-methyl-7-oxo-1H-pyrrolo[2,3-c]pyridine-4-carboxamide], with 4.96.

On to `CN1CCN(C(=O)c2cn(C)c(=O)c3[nH]ccc23)CC1` [Example 38, 6-methyl-4-(4-methylpiperazine-1-carbonyl)-1H-pyrrolo[2,3-c]pyridin-7-one], for which the negative-log IC50 (pIC50) was 5.10. Still for that read-out and setting: the value for `CC1CCCN(CCNC(=O)c2cn(C)c(=O)c3[nH]ccc23)C1` (centres unmarked) [Example 45, 6-methyl-N-[2-(3-methyl-1-piperidyl)ethyl]-7-oxo-1H-pyrrolo[2,3-c]pyridine-4-carboxamide] was 5.21; that for `Cn1cc(C(=O)N2CCCC2c2ccccc2)c2cc[nH]c2c1=O` (centres unmarked) [Example 85] was 6.24; that for `Cn1cc(C(=O)NCC2CCCCC2)c2cc[nH]c2c1=O` [Example 86] was 6.80. `CN(Cc1ccccc1)C(=O)c1cn(C)c(=O)c2[nH]ccc12` [Example 87] gave a pIC50 of 6.00. The compound `Cn1cc(C(=O)N2CCNc3ccccc3C2)c2cc[nH]c2c1=O` [Example 88] gave a pIC50 of 5.82. Same read-out and setting: then `Cn1cc(C(=O)N2CCC(c3ccccc3)C2)c2cc[nH]c2c1=O` (centres unmarked) [Example 89], with 5.39. The compound `Cn1cc(C(=O)N[C@H](C(N)=O)c2ccccc2)c2cc[nH]c2c1=O` [Example 90] showed a pIC50 of 6.52. The same measure, in the same setting: then `Cn1cc(C(=O)NC(c2ccccc2)c2ccccc2)c2cc[nH]c2c1=O` [Example 91], with 6.70; and `Cn1cc(C(=O)N[C@@H](C(N)=O)c2ccccc2)c2cc[nH]c2c1=O` [Example 97], with 6.31; and `CC(C)[C@H](NC(=O)c1cn(C)c(=O)c2[nH]ccc12)C(N)=O` [Example 98], with 6.26. The same measure, in the same setting: the value for `Cn1cc(C(=O)NCC2CCOC2)c2cc[nH]c2c1=O` (centres unmarked) [Example 102] was 6.07; that for `Cn1cc(C(=O)NCC2CCCCCC2)c2cc[nH]c2c1=O` [Example 103] was 6.31; that for `Cn1cc(C(=O)NC2CCOC2)c2cc[nH]c2c1=O` (centres unmarked) [Example 104] was 6.01. Same read-out and setting: the value for `CC(NC(=O)c1cn(C)c(=O)c2[nH]ccc12)C1CC2CCC1C2` (centres unmarked) [Example 106] was 6.62. With `Cn1cc(C(=O)N[C@H](c2ccccc2)[C@@H](O)c2ccccc2)c2cc[nH]c2c1=O` [Example 107], the negative-log IC50 (pIC50) was 5.47. Against the preceding compound, the pIC50 is 1.15 log units lower. `Cn1cc(C(=O)NCC2COc3ccccc3C2)c2cc[nH]c2c1=O` (centres unmarked) [Example 108] gave a pIC50 of 6.70. This pIC50 lies 1.23 log units higher than the previous one. Same read-out and setting: then `Cn1cc(C(=O)NC2CCN(C(=O)OC(C)(C)C)C2)c2cc[nH]c2c1=O` (centres unmarked) [Example 109], with 6.57; and `Cn1cc(C(=O)NCC2Cc3ccccc3O2)c2cc[nH]c2c1=O` (centres unmarked) [Example 110], with 6.07. The same measure, in the same setting: the value for `Cn1cc(C(=O)NCC2COc3ccccc3O2)c2cc[nH]c2c1=O` (centres unmarked) [Example 111] was 6.62; that for `CC(NC(=O)c1cn(C)c(=O)c2[nH]ccc12)C1CC1` (centres unmarked) [Example 112] was 6.34. Still for that read-out and setting: the value for `Cn1cc(C(=O)NCc2cccc3ccccc23)c2cc[nH]c2c1=O` [Example 114] was 7.14. `CC(NC(=O)c1cn(C)c(=O)c2[nH]ccc12)c1ccncc1` (centres unmarked) [Example 115] had a pIC50 of 6.19. The same measure, in the same setting: the value for `CC(NC(=O)c1cn(C)c(=O)c2[nH]ccc12)c1ccccc1Cl` (centres unmarked) [Example 118] was 6.62; that for `CC(NC(=O)c1cn(C)c(=O)c2[nH]ccc12)c1ccc2c(c1)OCCO2` (centres unmarked) [Example 120] was 6.36. Same read-out and setting: the value for `Cn1cc(C(=O)NC2COCc3ccccc32)c2cc[nH]c2c1=O` (centres unmarked) [Example 121] was 7.00; that for `Cc1cc(CC(C)NC(=O)c2cn(C)c(=O)c3[nH]ccc23)on1` (centres unmarked) [Example 122] was 5.66.

For the compound `Cn1cc(C(=O)NC2COCC2c2ccc(F)cc2)c2cc[nH]c2c1=O` (centres unmarked) [Example 124], the pIC50 was 5.54.

`Cn1cc(C(=O)NC2CCCc3ccccc32)c2cc[nH]c2c1=O` (centres unmarked) [Example 125]: the pIC50 was 6.89. The same measure, in the same setting: the value for `CC(NC(=O)c1cn(C)c(=O)c2[nH]ccc12)c1ccc(F)cc1` (centres unmarked) [Example 129] was 6.66; that for `Cn1cc(C(=O)NC(C)(C)c2ccccc2)c2cc[nH]c2c1=O` [Example 131] was 5.80; that for `Cn1cc(C(=O)NCC2CN(C(=O)OC(C)(C)C)CCO2)c2cc[nH]c2c1=O` (centres unmarked) [Example 134] was 6.55. In the case of `Cn1cc(C(=O)NCC2CCCN2C(=O)OC(C)(C)C)c2cc[nH]c2c1=O` (centres unmarked) [Example 136, tert-butyl 2-[[(6-methyl-7-oxo-1H-pyrrolo[2,3-c]pyridine-4-carbonyl)amino]methyl]pyrrolidine-1-carboxylate], the pIC50 was 6.40.
